Legend:
MV4-11 = assay: Antiproliferative activity against human MV4-11 cells harboring homozygous FLT3-ITD mutant assessed as inhibition of cell growth incubated for 72 hrs by resazurin dye based fluorescence analysis; assay type: functional
[1] = biological target: Receptor-type tyrosine-protein kinase FLT3 (Homo sapiens, UniProt P36888, ITD); assay: biochemical; assay type: cell-based, Sf9
K562 = assay: cells; conditions: Homo sapiens, K562, 72 h
Description: Antiproliferative activity against FLT3-independent human K562 cells assessed as inhibition of cell growth incubated for 72 hrs by resazurin dye based fluorescence analysis

MOLM-13 = assay: cells; conditions: Homo sapiens, MOLM-13, 72 h

Sequence of Receptor-type tyrosine-protein kinase FLT3 (P36888 whole entry, looked up, change not shown): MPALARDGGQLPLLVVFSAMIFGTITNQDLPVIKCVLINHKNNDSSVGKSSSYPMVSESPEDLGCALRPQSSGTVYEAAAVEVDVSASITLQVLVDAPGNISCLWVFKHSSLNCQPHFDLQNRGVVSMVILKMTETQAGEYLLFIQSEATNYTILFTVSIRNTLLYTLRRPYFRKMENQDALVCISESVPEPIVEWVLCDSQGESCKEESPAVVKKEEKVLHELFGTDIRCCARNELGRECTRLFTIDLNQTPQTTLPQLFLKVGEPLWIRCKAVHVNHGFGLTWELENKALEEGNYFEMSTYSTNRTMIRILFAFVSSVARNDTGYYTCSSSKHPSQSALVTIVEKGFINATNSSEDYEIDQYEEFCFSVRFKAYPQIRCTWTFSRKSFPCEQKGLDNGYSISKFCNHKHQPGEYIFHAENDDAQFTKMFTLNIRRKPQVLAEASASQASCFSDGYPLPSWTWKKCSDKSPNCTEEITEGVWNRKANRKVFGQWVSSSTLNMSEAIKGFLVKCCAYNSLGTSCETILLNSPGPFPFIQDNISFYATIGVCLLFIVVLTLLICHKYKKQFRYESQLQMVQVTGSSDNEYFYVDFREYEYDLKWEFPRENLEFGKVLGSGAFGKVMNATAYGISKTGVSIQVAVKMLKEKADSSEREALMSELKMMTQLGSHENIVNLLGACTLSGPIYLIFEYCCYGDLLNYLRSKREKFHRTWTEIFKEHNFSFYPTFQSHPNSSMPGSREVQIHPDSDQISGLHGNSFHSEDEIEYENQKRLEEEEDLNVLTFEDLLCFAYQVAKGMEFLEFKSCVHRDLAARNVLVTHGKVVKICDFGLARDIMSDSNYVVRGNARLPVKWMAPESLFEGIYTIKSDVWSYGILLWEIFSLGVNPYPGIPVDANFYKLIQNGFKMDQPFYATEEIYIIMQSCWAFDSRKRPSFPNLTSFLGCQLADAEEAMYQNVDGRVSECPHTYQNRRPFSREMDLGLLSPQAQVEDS

SMILES | GI50 (MV4-11) [nM] | IC50 [1] [nM] | GI50 (K562) [nM] | GI50 (MOLM-13) [nM]
O=C(Nc1ccccc1)Nc1nnc(Sc2ncnc3oc(-c4ccccc4)c(-c4ccccc4)c23)s1 | 74 | 4 | > 10000 | 110
Cc1ccc(NC(=O)Nc2nnc(Sc3ncnc4oc(-c5ccccc5)c(-c5ccccc5)c34)s2)cc1Cl | > 10000 | > 5000 | > 10000 | > 10000
COc1ccc(-c2cc3c(Sc4nnc(NC(=O)Nc5ccc(Cl)c(C(F)(F)F)c5)s4)ncnc3o2)cc1 | > 10000 | 55 | > 10000 | 5820
O=C(Nc1nnc(Sc2ncnc3oc(-c4ccccc4)c(-c4ccccc4)c23)s1)Nc1ccc(F)cc1F | 169 | 6 | > 10000 | 164
O=C(Nc1ccccc1)Nc1nnc(Sc2ncnc3oc(-c4ccccc4)cc23)s1 | 165 | 38 | > 10000 | 87
COc1cccc(NC(=O)Nc2nnc(Sc3ncnc4oc(-c5ccccc5)cc34)s2)c1 | 120 | 17 | 9460 | 79
Cc1ccc(NC(=O)Nc2nnc(Sc3ncnc4oc(-c5ccccc5)cc34)s2)cc1Cl | 430 | 3 | 9500 | 375
O=C(Nc1cccc(F)c1)Nc1nnc(Sc2ncnc3oc(-c4ccccc4)cc23)s1 | 337 | 56 | 7960 | 190
Cc1ccc(NC(=O)Nc2nnc(Sc3ncnc4oc(-c5ccccc5)c(-c5ccccc5)c34)s2)cc1 | 134 | 5 | > 10000 | 194
Cc1cccc(NC(=O)Nc2nnc(Sc3ncnc4oc(-c5ccccc5)cc34)s2)c1 | 133 | 12 | > 10000 | 105
COc1ccc(-c2cc3c(Sc4nnc(NC(=O)Nc5ccccc5)s4)ncnc3o2)cc1 | 96 | 16 | > 10000 | 117
O=C(Nc1ccc(Cl)c(C(F)(F)F)c1)Nc1nnc(Sc2ncnc3oc(-c4ccccc4)c(-c4ccccc4)c23)s1 | 8300 | 1270 | > 10000 | > 10000
O=C(Nc1nnc(Sc2ncnc3oc(-c4ccccc4)c(-c4ccccc4)c23)s1)Nc1ccccc1Br | 290 | 4 | > 10000 | 427
COc1cccc(NC(=O)Nc2nnc(Sc3ncnc4oc(-c5ccccc5)c(-c5ccccc5)c34)s2)c1 | 86 | 4 | 9950 | 185
O=C(Nc1cccc(Cl)c1)Nc1nnc(Sc2ncnc3oc(-c4ccccc4)c(-c4ccccc4)c23)s1 | 362 | 14 | > 10000 | 404
COc1ccc(-c2cc3c(Sc4nnc(NC(=O)Nc5cccc(Cl)c5)s4)ncnc3o2)cc1 | 1560 | 48 | > 10000 | 1060
Cc1cccc(NC(=O)Nc2nnc(Sc3ncnc4oc(-c5ccccc5)c(-c5ccccc5)c34)s2)c1 | 115 | 10 | > 10000 | 120
O=C(Nc1ccc(Cl)c(C(F)(F)F)c1)Nc1nnc(Sc2ncnc3oc(-c4ccccc4)cc23)s1 | 910 | 3 | > 10000 | 1220
O=C(Nc1ccc(Br)cc1)Nc1nnc(Sc2ncnc3oc(-c4ccccc4)c(-c4ccccc4)c23)s1 | 396 | 55 | > 10000 | 723
O=C(Nc1ccc(Cl)c(Cl)c1)Nc1nnc(Sc2ncnc3oc(-c4ccccc4)cc23)s1 | 1030 | 4 | 9830 | 710
O=C(Nc1ccc(Cl)cc1)Nc1nnc(Sc2ncnc3oc(-c4ccccc4)c(-c4ccccc4)c23)s1 | 342 | 16 | 9860 | 452
COc1ccc(-c2cc3c(Sc4nnc(NC(=O)Nc5ccc(Cl)cc5)s4)ncnc3o2)cc1 | 1380 | 22 | > 10000 | 1140
O=C(Nc1ccc(Br)cc1)Nc1nnc(Sc2ncnc3oc(-c4ccccc4)cc23)s1 | 1190 | 3 | > 10000 | 570
O=C(Nc1ccc(Cl)cc1)Nc1nnc(Sc2ncnc3oc(-c4ccccc4)cc23)s1 | 430 | 9 | > 10000 | 297
COc1ccc(NC(=O)Nc2nnc(Sc3ncnc4oc(-c5ccc(OC)cc5)cc34)s2)cc1 | 250 | 23 | > 10000 | 180
O=C(Nc1cccc(Cl)c1)Nc1nnc(Sc2ncnc3oc(-c4ccccc4)cc23)s1 | 345 | 10 | > 10000 | 240
O=C(Nc1cccc(F)c1)Nc1nnc(Sc2ncnc3oc(-c4ccccc4)c(-c4ccccc4)c23)s1 | 145 | 4 | > 10000 | 650
O=C(Nc1ccc(Cl)c(Cl)c1)Nc1nnc(Sc2ncnc3oc(-c4ccccc4)c(-c4ccccc4)c23)s1 | 6190 | 455 | > 10000 | 8660
COc1ccc(NC(=O)Nc2nnc(Sc3ncnc4oc(-c5ccccc5)c(-c5ccccc5)c34)s2)cc1 | 61 | 5 | > 10000 | 83
